Article PMC4911353, “Pharmacologic Inhibition of Host Phosphodiesterase-4 Improves Isoniazid-Mediated Clearance of Mycobacterium tuberculosis” (Frontiers in Immunology, 2016)

Experiments:
[1] = system: Mycobacterium tuberculosis CDC1551; type: in vivo; details: in vivo, 50 mg/kg
[2] = system: Pde4; assay: qPCR of host Pde4 gene expression in Mtb-infected mouse lungs; type: in vivo, mice; details: 14 days of treatment (28 days postinfection)
Procedure: Total lung RNA (200 ng) was reverse-transcribed using Sprint RT kit (Clontech, CA, USA); 10 ng of cDNA were used for quantitative real-time PCR (qPCR), with Brilliant II SYBR master mix (Agilent Technologies, CA, USA) and gene-specific primers in a Stratagene Mx3005P instrument (Agilent Technologies, CA, USA). ROX was included in each reaction as an internal control. The qPCR assay was performed using four mouse samples in duplicate per group; the data were analyzed using MxPro Software (Agilent Technologies, CA, USA). Transcript levels of Gapdh were used as a reference against the test genes. Fold change in gene expression was calculated using the formula 2^−ΔΔCt, where ΔCt is the difference in threshold cycle (Ct) between the target gene and Gapdh; and ΔΔCt is the […] between untreated and CC-11050-treated samples. Primers were designed based on nucleotide sequences obtained from PrimerBank.^3

[3] = system: lung granulomas; assay: Histology and morphometric measurement of lung granulomas in Mtb-infected mice; type: in vivo; details: 28 days postinfection (14 days of treatment), histology
Procedure: Formalin-fixed lung tissues of Mtb-infected mice were paraffin-embedded, cut into […] sections, and stained with hematoxylin and eosin (H&E) or acid fast staining by Ziehl–Neelsen (ZN) method to visualize host cells and Mtb, respectively (IDEXX-RADIL Laboratories Inc., MO, USA) as described in Ref. ([11]). Stained sections were photographed in a Nikon Microphot-FX photomicrographic system and analyzed with NIS-Elements F3.0 software (Nikon Instruments Inc., NY, USA). Lung granuloma size was morphometrically measured using PathScan Enabler IV scanner (Meyer Instruments, Houston, TX, USA) and SigmaScan Pro software (Systat Software, Inc., CA, USA). Histopathologic analysis and morphometry were performed by an experienced pathologist blinded to the sample identity.

[4] = set-up: method as in PMID 26981575; details: rabbits, cited from earlier work

## CCOc1cc([C@@H](CS(C)(=O)=O)N2Cc3cccc(NC(=O)C4CC4)c3C2=O)ccc1OC [CC-11050, N-[2-[(1S)-1-(3-ethoxy-4-methoxyphenyl)-2-(methylsulfonyl)ethyl]-2,3-dihydro-3-oxo-1H-isoindol-4-yl]-(9Cl) cyclopropanecarboxamide]
[1]
  Difference in number of lung CFUs versus untreated mice: No significant difference
[1]; po
  Lung bacillary load: about 5.5 log10
[2]
  Pde4A expression in lungs versus Mtb-infected untreated: No significant change
  Pde4C expression in lungs versus Mtb-infected untreated: No significant change
[2]; 50 mg/kg, P = 0.0037
  Pde4D expression in lungs versus Mtb-infected untreated: significantly reduced
[2]; 50 mg/kg, P = 0.015
  Pde4Bi3 (Pde4B isoform 3) expression in lungs versus Mtb-infected untreated: significantly reduced
[3]
  Impact on size and structure of lung lesions: no significant impact
[4]; 50 mg/kg
  Cmax: 163 ng/mL
  Tmax: 4 h
[4]
  Effect of INH on the pharmacokinetics of CC-11050: no effects
